Where two headings read alike, the source gives them in different places. Where no end group is shown, it is not given here.
How the values were obtained:
healthy donors [1] = conditions: in vivo
[2] = test system: HLA-A24 restricted antigen peptide-specific T cells (CTL precursors) in PBMCs; type: cell-based, human; conditions: for CTL precursor induction assay, response level per well: quadricate assay
cancer patients = test: Skin test for immediate and delayed type hypersensitivity in cancer patients
Method: For the skin test, 10 μg of 5 kinds of peptides was subcutaneously administered to each patient. Saline was used as the negative control. 20 minutes and 24 hours after injection, immediate and delayed type hypersensitivity (DHT) reactions were looked for. The skin test reaction was determined as positive if erythema and sclerosis were more than 10 mm in diameter. If the immediate hypersensitivity reaction was negative, a peptide was administered. Each peptide solution (3 mg/ml) was mixed with the same amount of IFA (Montanide ISA-51) and emulsified in a 5-mI plastic syringe, and 3 ml of the emulsion was subcutaneously administered to the lateral femoral region every two weeks. Serum PSA level was measured 4 weeks after vaccination. The time passed was defined as the time from the registration day to the date when the progress of the target disease was recorded. For patients who chose to discontinue the study without any progress of the target disease (e.g., increase in PSA) it was determined that the disease had progressed at the time the study was stopped.
When an immediate hypersensitivity reaction positive in the skin test of one of these peptides, that peptide was vaccinated if the fifth peptide of criteria A, B, or Z was negative in the skin test. […] In Table 14, o signifies vaccine peptides given to each patient.
Vaccine was administered to HLA-A24 positive patients with progressive cancer as following. CypB91 was given to lung cancer patients, ART475 to ovarian cancer patients, and SART3109 to colorectal cancer patients. None of the patients received any steroids or other immunosuppressants from 4 weeks before the beginning of this study to the end of the study. When the skin test was negative, 1 ml of peptide solution (1 mg/ml) was emulsified with the same amount of Freund's incomplete adjuvant (Montanide ISA-51) and injected subcutaneously. In this embodiment, all patients were vaccinated at least three times every two weeks, and up to seventeen times, depending on the patient's wishes.

healthy donors [3] = test: Allergic skin reaction (type I allergy) skin test in healthy donors
[4] = HLA-A24 positive cervical cancer patient PBMCs
[5] = HLA-A24 positive cervical cancer patient, after more than 5 doses of cancer vaccine
[6] = HLA-A24 positive cervical cancer patient, before vaccination, response to HIV-C1R-A24 cells subtracted
[7] = HRPC Pt. 9, pre-vaccinated PBMCs
[8] = HRPC Pt. 5, pre-vaccinated PBMCs

KFHRVGKDF
number of donors in whom the skin reaction was significantly decreased (<=0.25 of the rate in redness range) (healthy donors [1]): 3

AFLRGAAL [ART4 13-5G]
suppressed cases FR ≦ 0.25 (healthy donors [1]): 1/4

HYTNASDGL [lck208]
frequency of detection in the primary screening (patients) [2]: 3/10
IFN-γ production After 3rd dose of vaccine [2, 4]: 676 pg/mL
IFN-γ production After 6th dose of vaccine [2, 4]: 745 pg/mL
IFN-γ production Pre-Vaccination [2, 4]: 602 pg/mL
IFN-γ production 1st well [2, 5]: 41 pg/well
IFN-γ production 2nd well [2, 5]: 1473 pg/well
IFN-γ production 1st well [2, 6]: <0 pg/well
IFN-γ production 2nd well [2, 6]: <0 pg/well
IFN-γ production 3rd well [2, 6]: 76 pg/well
change in reactivity of PBMCs to the vaccinated peptide after vaccination ([2]; HLA-A24 positive cervical cancer patient, before vs after 3rd and 6th dose): increase in reactivity
CTL precursor induction assay, response level per well ([2]; HRPC Pt. 1, pre-vaccinated PBMCs): E^′
CTL precursor induction assay, response level per well ([2]; HRPC Pt. 3, pre-vaccinated PBMCs): ⊚AD
CTL precursor induction assay, response level per well ([2]; HRPC Pt. 6, pre-vaccinated PBMCs): ⊚ArAAC
CTL precursor induction assay, response level per well [2, 7]: ⊚AD
positive well frequency after vaccination ([2]; colorectal cancer patient 1): increase in positive well frequency
positive well frequency after vaccination ([2]; colorectal cancer patient 2): increase in positive well frequency
peptide-specific DTH reaction (cancer patients; colorectal cancer patient 1): observed after the 6th vaccination
peptide-specific DTH reaction (cancer patients; colorectal cancer patient 4, after the 3rd vaccination): exhibited DTH reaction

KFHRVIKDG
number of donors in whom the skin reaction was significantly decreased (<=0.25 of the rate in redness range) (healthy donors [1]): 2

AFGRHAAL
number of donors with a significant decrease in skin reaction (healthy donors [1]): one

KFHRVIKGF
number of donors in whom the skin reaction was significantly decreased (<=0.25 of the rate in redness range) (healthy donors [1]): 0

KFHRVIKGF [CypB 84-8G]
suppressed cases FR ≦ 0.25 (healthy donors [1]): 0/7

AFLRHAAG
number of donors with a significant decrease in skin reaction (healthy donors [1]): one

SFHRVIKDF
skin reaction compared with human CypB84 (healthy donors [3]; 5 healthy donors): weaker skin reaction
Allergic skin reaction, area of flare (healthy donors [3]; healthy donor HD1): 0 mm × mm
Allergic skin reaction, area of flare (healthy donors [3]; healthy donor HD2): 400 mm × mm
Allergic skin reaction, area of flare (healthy donors [3]; healthy donor HD3): 225 mm × mm
Allergic skin reaction, area of flare (healthy donors [3]; healthy donor HD6): 255 mm × mm
Allergic skin reaction, area of flare (healthy donors [3]; healthy donor HD10): 100 mm × mm

GFLRHAAL [ART4 13-1G]
suppressed cases FR ≦ 0.25 (healthy donors [1]): 0/4

GFHRVIKDF [CypB 84-1G]
suppressed cases FR ≦ 0.25 (healthy donors [1]): 1/7

GFHRVIKDF
number of donors in whom the skin reaction was significantly decreased (<=0.25 of the rate in redness range) (healthy donors [1]): 1

AYDFLYNYL [SART2161]
rate of skin reaction occurrence (donors) (healthy donors [1]): no such response

AFLGHAAL
skin reaction (healthy donors [1]): did not induce skin reaction in any of 4 donors

KFGRVIKDF [CypB 84-3G]
suppressed cases FR ≦ 0.25 (healthy donors [1]): 2/7

EYRGFTQDF [SART1690]
IFN-γ production 1st well [2, 5]: 34 pg/well
IFN-γ production 2nd well [2, 5]: 148 pg/well
IFN-γ production 3rd well [2, 5]: 329 pg/well
IFN-γ production 1st well [2, 6]: <0 pg/well
IFN-γ production 3rd well [2, 6]: 133 pg/well
CTL precursor induction assay, response level per well [2, 8]: C (C, 0.05<p≦0.1 and 50≦net)
CTL precursor induction assay, response level per well ([2]; HRPC Pt. 7, pre-vaccinated PBMCs): ⊚BE

KFHGVIKDF
number of donors in whom the skin reaction was significantly decreased (<=0.25 of the rate in redness range) (healthy donors [1]): 1

TFHRVIKDF
Allergic skin reaction, area of flare (healthy donors [3]; healthy donor HD1): 540 mm × mm
Allergic skin reaction, area of flare (healthy donors [3]; healthy donor HD2): 1400 mm × mm
Allergic skin reaction, area of flare (healthy donors [3]; healthy donor HD3): 750 mm × mm
Allergic skin reaction, area of flare (healthy donors [3]; healthy donor HD6): 450 mm × mm
Allergic skin reaction, area of flare (healthy donors [3]; healthy donor HD10): 300 mm × mm

AFLRHAAG [ART4 13-8G]
suppressed cases FR ≦ 0.25 (healthy donors [1]): 1/4

DYSARWNEI [SART293]
frequency of detection in the primary screening (patients) [2]: 4/10
IFN-γ production 1st well [2, 5]: 12 pg/well
IFN-γ production 2nd well [2, 5]: 58 pg/well
IFN-γ production 3rd well [2, 5]: 21 pg/well
IFN-γ production 1st well [2, 6]: <0 pg/well
IFN-γ production 2nd well [2, 6]: 33 pg/well
IFN-γ production 3rd well [2, 6]: 99 pg/well
CTL precursor induction assay, response level per well ([2]; HRPC Pt. 4, pre-vaccinated PBMCs): ⊚ArB
CTL precursor induction assay, response level per well [2, 8]: ⊚AAE
CTL precursor induction assay, response level per well [2, 7]: ⊚Ar
CTL precursor induction assay, response level per well ([2]; HRPC Pt. 10, pre-vaccinated PBMCs): ⊚A

KFGRVIKDF
number of donors in whom the skin reaction was significantly decreased (<=0.25 of the rate in redness range) (healthy donors [1]): 2

KGHRVIKDF
number of donors in whom the skin reaction was significantly decreased (<=0.25 of the rate in redness range) (healthy donors [1]): 1

NFHRVIKDF
Allergic skin reaction, area of flare (healthy donors [3]; healthy donor HD1): 360 mm × mm
Allergic skin reaction, area of flare (healthy donors [3]; healthy donor HD2): 1400 mm × mm
Allergic skin reaction, area of flare (healthy donors [3]; healthy donor HD3): 600 mm × mm
Allergic skin reaction, area of flare (healthy donors [3]; healthy donor HD6): 1350 mm × mm
Allergic skin reaction, area of flare (healthy donors [3]; healthy donor HD10): 300 mm × mm

KFHRGIKDF
number of donors in whom the skin reaction was significantly decreased (<=0.25 of the rate in redness range) (healthy donors [1]): 0

From US20060035291A1, “Method of detecting cellular immunity and application thereof to drugs” (priority 2001, published 2006)
